Assay results: patent US11773094B2, “Farnesoid X receptor agonists and uses thereof” (Metacrine, Inc., priority 2018, dated 2023)

Target: T1, hFXR (Homo sapiens, UniProt Q96RI1)
T1 construct: expressed in transfected cells; host or cells: CV-1 cells
T1 sequence (Q96RI1 1-486): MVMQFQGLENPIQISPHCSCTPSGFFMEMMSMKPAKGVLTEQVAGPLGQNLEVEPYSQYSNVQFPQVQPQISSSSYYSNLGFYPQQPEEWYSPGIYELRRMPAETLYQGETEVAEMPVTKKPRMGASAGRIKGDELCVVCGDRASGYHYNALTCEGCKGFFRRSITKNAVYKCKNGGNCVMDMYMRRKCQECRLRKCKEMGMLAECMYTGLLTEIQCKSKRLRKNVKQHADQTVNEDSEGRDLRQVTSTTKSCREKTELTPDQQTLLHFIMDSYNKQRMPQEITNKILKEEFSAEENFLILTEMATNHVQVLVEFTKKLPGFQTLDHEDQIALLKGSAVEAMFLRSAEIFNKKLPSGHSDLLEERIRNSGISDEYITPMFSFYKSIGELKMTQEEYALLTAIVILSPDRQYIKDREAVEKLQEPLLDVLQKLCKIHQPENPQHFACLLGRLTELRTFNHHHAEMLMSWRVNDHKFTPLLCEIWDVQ
T1 sequence (P19793 1-462 partner): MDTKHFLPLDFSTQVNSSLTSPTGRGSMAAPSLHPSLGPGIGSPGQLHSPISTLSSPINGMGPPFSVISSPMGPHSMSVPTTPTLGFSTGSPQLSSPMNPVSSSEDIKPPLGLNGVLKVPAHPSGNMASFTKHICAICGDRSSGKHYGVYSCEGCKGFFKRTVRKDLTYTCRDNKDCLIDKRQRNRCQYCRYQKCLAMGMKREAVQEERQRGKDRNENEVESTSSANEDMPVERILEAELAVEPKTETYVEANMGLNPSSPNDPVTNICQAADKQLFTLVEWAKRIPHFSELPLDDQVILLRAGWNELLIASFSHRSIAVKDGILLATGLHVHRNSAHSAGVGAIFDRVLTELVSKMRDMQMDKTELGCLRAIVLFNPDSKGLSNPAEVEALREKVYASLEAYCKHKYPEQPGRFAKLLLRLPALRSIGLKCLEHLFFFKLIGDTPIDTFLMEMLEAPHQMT
Test: In Vitro FXR Assay (TK): TK-ECRE-luc reporter in transfected CV-1 cells
Type: cell-based
Conditions: CV-1 cells transfected with hFXR, hRXR, pCMX-YFP, 18 hrs incubation, luminescence
Protocol: Example B-1: In Vitro FXR Assay (TK)
CV-1 cells were seeded at a density of 2,000,000 cells in a T175 flask with DMEM+10% charcoal double-stripped FBS and incubated at 37° C. in 5% CO2 for 18 h (O/N).
After 18 h of incubation, the medium in the T175 flask was changed with fresh DMEM+10% charcoal super-stripped serum. In a polypropylene tube, 2500 μL OptiMEM (Life Technologies, Cat #31985-062) was combined with expression plasmids for hFXR, hRXR, TK-ECRE-luc and pCMX-YFP. The tube was then briefly vortexed and incubated at room temperature for 5 minutes. Transfection reagent (X-tremeGENE HP from Roche, Cat #06 366 236 001) was added to the OptiMEM/plasmid mixture vortexed and incubated at room temperature for 20 minutes. Following incubation, the transfection reagent/DNA mixture complex was added to cells in the T175 flask and the cells were incubated at 37° C. in 5% CO2 for 18 h (O/N).
Compounds were serially diluted in DMSO and added to transfected CV-1 cells. The cells were then incubated for 18 hrs. The next day cells were lysed and examined for luminescence.

SMILES | EC50 [nM]
CCC(C)(CC)n1cc(-c2ccnc(N(CC34CCC(c5ccc(OC)c(C)c5)(CC3)CC4)C(=O)[C@H]3CC[C@H](OC(=O)N4CC(C)(O)C4)CC3)c2)cn1 [Compound 4.05, 4-(((4-(4-Methoxy-3-methylphenyl)bicyclo[2.2.2]octan-1-yl)methyl)(4-(1-(3-methylpentan-3-yl)-1H-pyrazol-4-yl)pyridin-2-yl)carbamoyl)cyclohexyl trans-3-hydroxy-3-methylazetidine-1-carboxylate] | ≤ 10
COc1ccc(C23CCC(CN(c4cc(-c5coc(C(C)(C)C)n5)ccn4)C(=O)[C@H]4CC[C@H](OC(=O)NC5CCOCC5)CC4)(CC2)CC3)cc1C [Compound 3.11, 4-((4-(2-(tert-Butyl)oxazol-4-yl)pyridin-2-yl)((4-(4-methoxy-3-methylphenyl)bicyclo[2.2.2]octan-1-yl)methyl)carbamoyl) cyclohexyl (tetrahydro-2H-pyran-4-yl)trans-carbamate] | ≤ 10
COc1ccc([C@H]2CC[C@H](CN(c3cc(-c4cnn(C(C)(C)C)c4)ccn3)C(=O)[C@H]3CC[C@H](OC(=O)NC4CCOCC4)CC3)CC2)cc1C [Compound 1.11, trans-4-((4-(1-(tert-Butyl)-1H-pyrazol-4-yl)pyridin-2-yl)((trans-4-(4-methoxy-3-methylphenyl)cyclohexyl)methyl)carbamoyl) cyclohexyl (tetrahydro-2H-pyran-4-yl)carbamate] | 10 to 1000
COc1ccc(C23CCC(CN(c4cccc(-c5cnn(C(C)(C)C)c5)n4)C(=O)[C@H]4CC[C@H](OC(=O)N5CC(O)C5)CC4)(CC2)CC3)cc1C [Compound 1.15, 4-((6-(1-(tert-Butyl)-1H-pyrazol-4-yl)pyridin-2-yl)((4-(4-methoxy-3-methylphenyl)bicyclo[2.2.2]octan-1-yl)methyl)carbamoyl) (trans-cyclohexyl) 3-hydroxyazetidine-1-carboxylate] | 10 to 1000
COc1ccc(C23CCC(CN(c4cc(-c5cnn(C(C)(C)C)c5)ccn4)C(=O)[C@H]4CC[C@H](OC(=O)N5CC(O)C5)CC4)(CC2)CC3)cc1C [Compound 3, 4-((4-(1-(tert-Butyl)-1H-pyrazol-4-yl)pyridin-2-yl)((4-(4-methoxy-3-methylphenyl)bicyclo[2.2.2]octan-1-yl)methyl)carbamoyl)cyclohexyl 3-hydroxyazetidine-trans-1-carboxylate] | ≤ 10
COc1ccc(C23CCC(CN(c4cc(-c5cnc(C(C)(C)C)s5)ccn4)C(=O)[C@H]4CC[C@H](OC(=O)NCCO)CC4)(CC2)CC3)cc1C [Compound 2.06, 4-((4-(2-(tert-Butyl)thiazol-5-yl)pyridin-2-yl)((4-(4-methoxy-3-methylphenyl)bicyclo[2.2.2]octan-1-yl)methyl)carbamoyl)cyclohexyl (2-hydroxyethyl)trans-carbamate] | ≤ 10
COc1ccc(C23CCC(CN(c4cncc(-c5cnn(C(C)(C)C)c5)c4)C(=O)[C@H]4CC[C@H](OC(=O)N5CC(O)C5)CC4)(CC2)CC3)cc1C [Compound 1.14, 4-((5-(1-(tert-Butyl)-1H-pyrazol-4-yl)pyridin-3-yl)((4-(4-methoxy-3-methylphenyl)bicyclo[2.2.2]octan-1-yl)methyl)carbamoyl) (trans-cyclohexyl) 3-hydroxyazetidine-1-carboxylate] | ≤ 10
COc1ccc(C23CCC(CN(c4cc(-c5ccn(C(C)(C)C)n5)ccn4)C(=O)[C@H]4CC[C@H](OC(=O)N5CC(O)C5)CC4)(CC2)CC3)cc1C [Compound 4.10, 4-((4-(1-(tert-Butyl)-1H-pyrazol-3-yl)pyridin-2-yl)((4-(4-methoxy-3-methylphenyl)bicyclo[2.2.2]octan-1-yl)methyl)carbamoyl) cyclohexyl trans-3-hydroxyazetidine-1-carboxylate] | 10 to 1000
COc1ccc([C@H]2CC[C@H](CN(c3cc(-c4cnn(C(C)(C)C)c4)ccn3)C(=O)[C@H]3CC[C@H](OC(=O)N4CCC(O)CC4)CC3)CC2)cc1C [Compound 1.10, trans-4-((4-(1-(tert-Butyl)-1H-pyrazol-4-yl)pyridin-2-yl)((trans-4-(4-methoxy-3-methylphenyl)cyclohexyl)methyl)carbamoyl) cyclohexyl 4-hydroxypiperidine-1-carboxylate] | 10 to 1000
COc1ccc(C23CCC(CN(c4cc(-c5cnn(C(C)(C)C)c5)ccn4)C(=O)[C@H]4CC[C@H](OC(=O)NC5CCSCC5)CC4)(CC2)CC3)cc1C [Compound 2.29, 4-((4-(1-(tert-Butyl)-1H-pyrazol-4-yl)pyridin-2-yl)((4-(4-methoxy-3-methylphenyl)bicyclo[2.2.2]octan-1-yl)methyl)carbamoyl)cyclohexyl trans-(tetrahydro-2H-thiopyran-4-yl)carbamate] | 10 to 1000
COc1ccc(C23CCC(CN(c4cc(-c5coc(C(C)(C)C)n5)ccn4)C(=O)[C@H]4CC[C@H](OC(=O)N5CC(O)C5)CC4)(CC2)CC3)cc1C [Compound 3.10, 4-((4-(2-(tert-Butyl)oxazol-4-yl)pyridin-2-yl)((4-(4-methoxy-3-methylphenyl)bicyclo[2.2.2]octan-1-yl)methyl)carbamoyl)cyclohexyl 3-hydroxyazetidine-trans-1-carboxylate] | ≤ 10
CCC(C)(C)n1cc(-c2ccnc(N(CC34CCC(c5ccc(OC)c(C)c5)(CC3)CC4)C(=O)[C@H]3CC[C@H](OC(=O)N4CCC(O)CC4)CC3)c2)cn1 [Compound 4.02, 4-(((4-(4-Methoxy-3-methylphenyl)bicyclo[2.2.2]octan-1-yl)methyl)(4-(1-(tert-pentyl)-1H-pyrazol-4-yl)pyridin-2-yl)carbamoyl) cyclohexyl trans-4-hydroxypiperidine-1-carboxylate] | ≤ 10
COc1c(C)cc(C23CCC(CN(c4nccc(-c5cnn(C(C)(C)C)c5)n4)C(=O)[C@H]4CC[C@H](OC(=O)N5CC(O)C5)CC4)(CC2)CC3)cc1C [Compound 3.15, 4-((4-(1-(tert-Butyl)-1H-pyrazol-4-yl)pyrimidin-2-yl)((4-(4-methoxy-3,5-dimethylphenyl)bicyclo[2.2.2]octan-1-yl)methyl)carbamoyl) (trans-cyclohexyl) 3-hydroxyazetidine-1-carboxylate] | 10 to 1000
COc1ccc(C23CCC(CN(c4cc(-c5cnn(C(C)(C)C)c5)ccn4)C(=O)[C@H]4CC[C@H](OC(=O)N5CC(C)(O)C5)CC4)(CC2)CC3)cc1C [Compound 2.22, 4-((4-(1-(tert-Butyl)-1H-pyrazol-4-yl)pyridin-2-yl)((4-(4-methoxy-3-methylphenyl)bicyclo[2.2.2]octan-1-yl)methyl)carbamoyl) (trans-cyclohexyl) 3-hydroxy-3-methylazetidine-1-carboxylate] | ≤ 10
COc1ccc(C23CCC(CN(c4cc(-c5cnc(C(C)(C)C)s5)ccn4)C(=O)[C@H]4CC[C@H](OC(=O)NC5CCOCC5)CC4)(CC2)CC3)cc1C [Compound 3.09, 4-((4-(2-(tert-Butyl)thiazol-5-yl)pyridin-2-yl)((4-(4-methoxy-3-methylphenyl)bicyclo[2.2.2]octan-1-yl)methyl)carbamoyl) cyclohexyl (tetrahydro-2H-pyran-4-yl)trans-carbamate] | 10 to 1000
CN(C)c1ccc(C23CCC(CN(c4cc(-c5cnn(C(C)(C)C)c5)ccn4)C(=O)[C@H]4CC[C@H](OC(=O)N5CC(O)C5)CC4)(CC2)CC3)cn1 [Compound 3.06, 4-((4-(1-(tert-Butyl)-1H-pyrazol-4-yl)pyridin-2-yl)((4-(6-(dimethylamino)pyridin-3-yl)bicyclo[2.2.2]octan-1-yl)methyl)carbamoyl) (trans-cyclohexyl) 3-hydroxyazetidine-1-carboxylate] | 10 to 1000
COc1ccc(C23CCC(CN(c4cncc(-c5cnn(C(C)(C)C)c5)n4)C(=O)[C@H]4CC[C@H](OC(=O)N5CC(O)C5)CC4)(CC2)CC3)cc1C [Compound 3.12, 4-((6-(1-(tert-Butyl)-1H-pyrazol-4-yl)pyrazin-2-yl)((4-(4-methoxy-3-methylphenyl)bicyclo[2.2.2]octan-1-yl)methyl)carbamoyl) (trans-cyclohexyl) 3-hydroxyazetidine-1-carboxylate] | 10 to 1000
